Measured values as given in PMC10339762, “Fragment-based drug discovery of small molecule ligands for the human chemokine CCL28” (SLAS discovery : advancing life sciences R & D, 2023).

Assays:
Type in all cases: binding
[1] = target: T1, CCL28(4-108) (Homo sapiens, UniProt Q9NRJ3); experiment: Dual-fragment NMR titration; details: one fragment titrated 0–3 mM into 3 mM of the other, 50 μM CCL28
T1 construct: Uniformly ^15N-labeled CCL28(1-108) and CCL28(4-108) proteins were expressed using a previously described SUMO fusion construct; Smt (SUMO) fusion tag (N, cleaved yes); made in house; host or cells: E. coli BL21(DE3)
T1 sequence (Q9NRJ3 23-127): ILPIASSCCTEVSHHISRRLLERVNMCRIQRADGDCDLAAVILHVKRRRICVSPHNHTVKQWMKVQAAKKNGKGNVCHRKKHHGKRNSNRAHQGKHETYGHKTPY

[2] = target: T2, CCL28(1-108) (Homo sapiens, UniProt Q9NRJ3); experiment: 1H-15N HSQC NMR titration of repurchased fragment hits (hit validation); details: for Kd: 50 μM CCL28(1-108), fragment 0–6 mM, HSQC at 25 °C, estimated by nonlinear fitting, read-out: Kd (fitting of titration-derived chemical shift perturbation data)
T2 construct: Uniformly ^15N-labeled CCL28(1-108) and CCL28(4-108) proteins were expressed using a previously described SUMO fusion construct; Smt (SUMO) fusion tag (N, cleaved yes); made in house; host or cells: E. coli BL21(DE3)
T2 sequence (Q9NRJ3 20-127): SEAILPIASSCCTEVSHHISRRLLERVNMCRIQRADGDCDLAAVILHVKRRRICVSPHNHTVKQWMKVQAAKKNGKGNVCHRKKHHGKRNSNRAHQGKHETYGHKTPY
Procedure: NMR samples for fragment screening and titration experiments were prepared using a liquid handling robot designed for and dedicated to sample mixing and loading of NMR sample tubes as previously described, except that 1.7 mm sample tubes were used with sample volumes of 60 μL. All ^1H,^15N HSQC spectra were acquired at 25 °C and 600 MHz on a Bruker Avance III HD NMR spectrometer equipped with a 1.7 mm TCI CryoProbe and SampleJet sample handling robot. NMR data processing was performed in an automated manner, as previously described. Custom Python scripts were used to automate the movement of NMRPipe processing scripts to each experiment directory, run the NMRPipe processing scripts, transfer transformed spectra to a processed data directory, compute HSQC difference spectra, generate HSQC overlay and HSQC difference contour plot files for each sample, perform principal component analysis calculations and K-means cluster analysis on all spectra acquired in each round of fragment screening.
Fragment screening was conducted against 50 μM ^15N-CCL28(1-108) in an iterative multiplexed manner as previously described, except that each chemical fragment was present at a concentration of 500 μM instead of 1mM. A collection of 2,678 fragments comprised of the Core 1000 (Maybridge), Zenobia 1 (Zenobia), L5700 (Targetmol), and 3D Shape Diverse (Enamine) libraries were arranged into 12-plex groups for the first iteration. A consistent buffer was used across all NMR samples (50 mM dMES, 150 mM NaCl, 3% v/v DMSO, 0.02% w/v sodium azide, 5% v/v deuterium oxide) for 12-plex, 3-plex, and single compound screening rounds. Principal component analysis (PCA) and difference intensity analysis (DIA) comparisons of a reference (DMSO only) spectrum with each screening spectrum were used to identify potential hits, which were then verified by manual inspection of HSQC overlays and HSQC difference spectra, as previously described. Candidate hits were repurchased and subjected to ^1H-^15N HSQC titration with 50 μM CCL28(1-108) at concentrations ranging from 0–6 mM. Repurchased compound identities were confirmed via 1D ^1H NMR, and purity was determined to be at least 90% via natural abundance ^1H-^13C HSQC. For a subset of validated hits, CCL28 binding was measured in combination with a second fragment, each of which was titrated to a maximum concentration of 3 mM.
Because hits were identified in the primary screen from 2D NMR spectra acquired at a single fragment concentration, evaluating each candidate in terms of CCL28 binding affinity and specificity was essential. HSQC titrations up to a final concentration of 6 mM were performed using repurchased material for each candidate hit. Using the same chemical shift mapping approach employed for sTyr binding (Fig. 1B & C), titration-derived chemical shift perturbation data was used to ascertain and visualize the residues most affected by the addition of each compound. Fragment binding affinities were estimated by nonlinear fitting as previously described. […] While Kd value estimates ranged from ~1 mM to > 10 mM (Fig. 3), the other 13 fragments reproduced HSQC perturbations observed in the primary NMR screen, and PCA clustered them in two groups distinct from the non-hits. […] Four fragments mainly affected residues […], R21, E25, and the side chain of Q69 located in a cleft between the N-loop and α-helix. Another eight fragments largely perturbed residues in the sY binding cleft (Fig. 1C), including I53, which is analogous to V49 of CXCL12, a critical residue in facilitating binding interactions with sY21 of its receptor CXCR4 [18].

[3] = target: T1, CCL28(4-108); experiment: Single-fragment 1H-15N HSQC titration, chemical shift mapping; details: 6 mM fragment, 50 μM CCL28(4-108)

| Structure (SMILES) | Kd [2] [mM] | further results |
| --- | --- | --- |
| O=C(O)c1ccc(-c2ccccc2)s1 [CC10501] | 6.6 | Simultaneous binding of fragment pair [1]: can occupy adjoining subsites within the same cleft on the CCL28 surface; Residues with largest / strong fragment-induced peak shifts [3]: I53, S20, and R21, CC10501 additionally yielded strong peak shifts for E25, Q69, and M66 |
| O=C(O)c1ccc(-c2cccs2)s1 [CC146001] | 3.2 |  |
| Cc1csc(C(C#N)C(=O)c2ccccc2F)n1 (centres unmarked) [E2C02.03 C11.09C10] | > 10 |  |
| Cc1cc(Cl)ccc1S(=O)(=O)Nc1ccon1 [E2C04.04 C11.12C09] | > 10 |  |
| O=C(O)c1cc2cc(C(F)(F)F)ccc2[nH]1 [TA01.A04.02A03] | > 10 |  |
| O=c1cc(O)c2ccccc2o1 [ZT0262] | > 10 |  |

Further lines, with some results ahead:

| Kd [2] [mM] | Structure (SMILES) | further results |
| --- | --- | --- |
| 0.85 | OCCCCn1cnc2cc(Cl)c(Cl)cc21 [SPB07625] | Simultaneous binding of fragment pair [1]: can occupy adjoining subsites within the same cleft on the CCL28 surface |
| 1.2 | Sc1nc2cc(Cl)ccc2o1 [ZT0010] |  |
| > 10 | O=C(O)c1cc2cc(F)ccc2[nH]1 [ZT0073] |  |
| > 10 | Cc1cccc(C(=O)O)c1O [ZT0733] |  |
| > 10 | O=C(O)/C=C/c1ccccc1 [ZT0754] |  |
| 2.3 | O=C(O)c1ccc2c3c(cccc13)CC2 [ZT0784] | Binding site by chemical shift mapping ([2]; HSQC titration up to 6 mM, two potential sites (N-loop/α-helix cleft; sY binding cleft)): perturbed residues located in both sites |
| > 10 | O=C(O)c1cc2ccccc2[nH]1 [ZT1669] |  |
